Tests used:
Format in all cases: cell-based
[1] = system: NCI-H727; assay: Cell viability/CTG assay, NCI-H727; details: Homo sapiens; NCI-H727 cell line; CTG assay, 72 hr; values approximate; read-out: IC (μM, CTG assay: 72 hr)
Protocol: (§1) FIGS. 3A and 3B are a set of graphs showing the cell viability/CTG assays for NEN cell lines treated with BCL-2/xL inhibitor Compound No. 2 (an active metabolite of Compound No. 1)(FIG. 3A) or ABT-263 (FIG. 3B).
(§2) The activity of Compound No. 2 (an active metabolite of Compound No. 1) in overcoming apoptotic blockade in neuroendocrine neoplasm was tested, alone or in comparison with ABT-263.

[2] = system: MIN-6; assay: Cell viability/CTG assay, MIN-6; details: Mus musculus, MIN6; MIN-6 cell line; CTG assay, 72 hr; values approximate; read-out: IC (μM, CTG assay: 72 hr)
Protocol: as §1, §2

[3] = system: QGP-1; assay: Cell viability/CTG assay, QGP-1; details: QGP-1 cell line; CTG assay, 72 hr; values approximate; read-out: IC (μM, CTG assay: 72 hr)
Protocol: as §1, §2

[4] = system: β-TC3; assay: Cell viability/CTG assay, β-TC3; details: β-TC3 cell line; CTG assay, 72 hr; values approximate; read-out: IC (μM, CTG assay: 72 hr)
Protocol: as §1, §2

[5] = system: NCI-H460; assay: Cell viability/CTG assay, NCI-H460; details: Homo sapiens; NCI-H460 cell line; CTG assay, 72 hr; values approximate; read-out: IC (μM, CTG assay: 72 hr)
Protocol: as §1, §2

[6] = system: BON-1; assay: Cell viability/CTG assay, BON-1; details: BON-1 cell line; CTG assay, 72 hr; values approximate; read-out: IC (μM, CTG assay: 72 hr)
Protocol: as §1, §2

[7] = biological target: T1, BCL-xL:BIM complex (Homo sapiens, UniProt Q07817); assay: BCL-2 family member complex intensity: BCL-xL:BIM; details: BON-1 and QGP-1 treated with BCL-2/xL inhibitors; FIG. 4A
T1 construct: High expression of BCL-xL protein was found in NEN cell lines; endogenous in cells; host or cells: BON-1 and QGP-1 (printed QGP-I) NEN cell lines
Source text: (§3) FIGS. 4A-4C are a set of graphs showing the BCL-2 family member complex intensity in BON-1 and QGP-I treated with BCL-2/xL inhibitors (FIG. 4A: BCL-xL:BIM complex, FIG. 4B: BCL-xL:PUMA complex; and FIG. 4C: BAX:BAK protein complexes).

[8] = system: NEN cell lines; assay: NEN cell viability (general statement); details: FIGS. 3A and 3B
Protocol: as §1, §2

[9] = system: BAX:BAK complex; assay: BCL-2 family member complex intensity: BAX:BAK; details: BON-1 and QGP-1 treated with BCL-2/xL inhibitors; FIG. 4C
Source text: as §3

T1 sequence (Q07817 whole entry, one chain of several): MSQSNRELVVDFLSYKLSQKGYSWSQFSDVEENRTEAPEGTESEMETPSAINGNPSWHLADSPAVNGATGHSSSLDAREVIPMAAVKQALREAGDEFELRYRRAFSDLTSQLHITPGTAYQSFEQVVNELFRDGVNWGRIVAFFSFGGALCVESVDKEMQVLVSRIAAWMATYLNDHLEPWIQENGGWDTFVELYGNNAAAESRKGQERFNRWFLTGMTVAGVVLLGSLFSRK

IC50 [1]	IC50 [5]	BCL-xL:BIM complex [7]	SMILES	IC50 [2]	IC50 [3]	IC50 [4]	IC50 [6]	NEN cell viability [8]	BAX:BAK complex [9]
3.74 µM	71 µM		CC1(C)CCC(c2ccc(Cl)cc2)=C(CN2CCN(c3ccc(C(=O)NS(=O)(=O)c4ccc(N[C@H](CCN5CCOCC5)CSc5ccccc5)c(S(=O)(=O)C(F)(F)F)c4)cc3)CC2)C1 [ABT-263, 4-(4-{[2-(4-Chlorophenyl)-5,5-dimethyl-1-cyclohexen-1-yl]methyl}-1-piperazinyl)-N-[(4-{[(R)-4-(4-morpholinyl)-1-(phenylsulfanyl)-2-butanyl]amino}-3-[(trifluoromethyl)sulfonyl]phenyl)-sulfonyl]benzamide, reference compound]	5.56 µM	≥ 10 µM	1.12 µM	0.91 µM		
3.79 µM	≥ 10 µM	decreases BCL-xL:BIM complex	Cc1c(S(C)(=O)=O)c(-c2cc(F)cc(N3CCN(c4ccc(NS(=O)(=O)c5ccc(N[C@H](CCN6CCC(C(=O)O)CC6)CSc6ccccc6)c(S(=O)(=O)C(F)(F)F)c5)cc4)CC3)c2)c(-c2ccc(Cl)cc2)n1C(C)C [Compound No. 2]	2.07 µM	3.78 µM	0.55 µM	0.43 µM	inhibits the NEN cell viability	increases BAX:BAK complex

From US20220296557A1, “COMBINATIONS OF BCL-2/BCL-XL INHIBITORS AND RELATED USES” (Ascentage Pharma (Suzhou) Co., Ltd., priority 2020, published 2022)
